Test results: US11352340B2, “Pyridine and pyridimine compounds as PI3K-gamma inhibitors” (Incyte Corporation, priority 2016, dated 2022)
Counter-ions that a name gives are not always drawn.

Columns and labels:
[1] = biological target: PI3Kγ (p110γ) Recombinant Human Protein (Homo sapiens (Human), UniProt P48736); experiment: PI3K-γ Scintillation Proximity Assay; format: biochemical; settings: read-out: PI3K-gamma SPA IC50
From the text: Example B. PI3K-γ Scintillation Proximity Assay
(§1) [γ-^33P]ATP (10 mCi/mL) and Wheat Germ Agglutinin (WGA) YSi SPA Scintillation Beads was purchased from Perkin-Elmer (Waltham, Mass.). Lipid kinase substrate, D-myo-Phosphatidylinositol 4,5-bisphosphate (PtdIns(4,5)P2)D (+)-sn-1,2-di-O-octanoylglyceryl, 3-O-phospho linked (PIP2), CAS 204858-53-7, was purchased from Echelon Biosciences (Salt Lake City, Utah). PI3Kγ (p110γ) Recombinant Human Protein was purchased from Life technology (Grand Island, N.Y.). ATP, MgCl2, DTT, EDTA, MOPS and CHAPS were purchased from Sigma-Aldrich (St. Louis, Mo.).
(§2) The kinase reaction was conducted in polystyrene 384-well Greiner Bio-one white plate from Thermo Fisher Scientific in a final volume of 25 μL. Inhibitors were first diluted serially in DMSO and added to the plate wells before the addition of other reaction components. The final concentration of DMSO in the assay was 2%. The PI3Kγ assay was carried out at room temperature in 20 mM MOPS, pH 6.7, 10 mM MgCl2, 5 mM DTT and CHAPS 0.03%. Reactions were initiated by the addition of ATP, the final reaction mixture consisted of 20 μM PIP2, 2 μM ATP, 0.5 μCi [γ-^33P] ATP, 13 nM PI3Kγ. Reactions were incubated for 120 min and terminated by the addition of 40 μL SPA beads suspended in quench buffer: 163 mM potassium phosphate pH 7.8, 20% glycerol, 25 mM EDTA. The final concentration of SPA beads is 1.0 mg/mL. After the plate sealing, plates were shaken overnight at room temperature and centrifuged at 1500 rpm for 10 min, the radioactivity of the product was determined by scintillation counting on Topcount (Perkin-Elmer). IC50 determination was performed by fitting the curve of percent of the solvent control activity versus the log of the inhibitor concentration using the GraphPad Prism 6.0 software.

[2] = biological target: PI3Kδ (p110δ/p85α) Recombinant Human Protein (Homo sapiens (Human), UniProt O00329); experiment: PI3Kδ Scintillation Proximity Assay; format: biochemical; settings: read-out: PI3K-delta SPA IC50
Chain of PI3Kδ (p110δ/p85α) Recombinant Human Protein (O00329 whole entry): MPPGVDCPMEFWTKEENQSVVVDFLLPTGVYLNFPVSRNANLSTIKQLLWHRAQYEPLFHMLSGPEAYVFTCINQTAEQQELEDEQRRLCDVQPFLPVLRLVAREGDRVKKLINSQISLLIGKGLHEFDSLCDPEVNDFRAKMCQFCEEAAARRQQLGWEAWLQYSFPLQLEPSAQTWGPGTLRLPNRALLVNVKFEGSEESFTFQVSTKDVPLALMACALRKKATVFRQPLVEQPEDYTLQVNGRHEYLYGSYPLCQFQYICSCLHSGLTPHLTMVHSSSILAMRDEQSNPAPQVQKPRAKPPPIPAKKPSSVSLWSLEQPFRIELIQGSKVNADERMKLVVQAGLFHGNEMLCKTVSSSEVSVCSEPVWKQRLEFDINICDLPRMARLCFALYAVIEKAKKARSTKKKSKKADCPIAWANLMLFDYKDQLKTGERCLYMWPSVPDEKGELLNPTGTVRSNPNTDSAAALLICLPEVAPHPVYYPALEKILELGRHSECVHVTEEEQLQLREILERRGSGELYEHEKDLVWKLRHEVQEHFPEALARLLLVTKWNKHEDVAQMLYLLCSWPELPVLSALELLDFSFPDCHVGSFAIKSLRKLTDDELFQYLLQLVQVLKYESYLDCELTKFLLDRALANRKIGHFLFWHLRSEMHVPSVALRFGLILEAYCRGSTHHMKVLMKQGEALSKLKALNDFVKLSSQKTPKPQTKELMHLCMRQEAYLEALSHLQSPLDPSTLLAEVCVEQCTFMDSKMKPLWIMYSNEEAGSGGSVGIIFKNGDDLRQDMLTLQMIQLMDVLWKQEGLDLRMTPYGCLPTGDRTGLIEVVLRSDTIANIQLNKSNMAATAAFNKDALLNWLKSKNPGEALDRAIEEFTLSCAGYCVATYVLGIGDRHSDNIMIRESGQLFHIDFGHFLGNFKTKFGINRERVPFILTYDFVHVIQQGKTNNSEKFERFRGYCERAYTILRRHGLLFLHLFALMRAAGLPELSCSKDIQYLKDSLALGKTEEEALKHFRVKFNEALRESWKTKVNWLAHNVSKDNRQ
Chain of PI3Kδ (p110δ/p85α) Recombinant Human Protein (P27986 whole entry partner): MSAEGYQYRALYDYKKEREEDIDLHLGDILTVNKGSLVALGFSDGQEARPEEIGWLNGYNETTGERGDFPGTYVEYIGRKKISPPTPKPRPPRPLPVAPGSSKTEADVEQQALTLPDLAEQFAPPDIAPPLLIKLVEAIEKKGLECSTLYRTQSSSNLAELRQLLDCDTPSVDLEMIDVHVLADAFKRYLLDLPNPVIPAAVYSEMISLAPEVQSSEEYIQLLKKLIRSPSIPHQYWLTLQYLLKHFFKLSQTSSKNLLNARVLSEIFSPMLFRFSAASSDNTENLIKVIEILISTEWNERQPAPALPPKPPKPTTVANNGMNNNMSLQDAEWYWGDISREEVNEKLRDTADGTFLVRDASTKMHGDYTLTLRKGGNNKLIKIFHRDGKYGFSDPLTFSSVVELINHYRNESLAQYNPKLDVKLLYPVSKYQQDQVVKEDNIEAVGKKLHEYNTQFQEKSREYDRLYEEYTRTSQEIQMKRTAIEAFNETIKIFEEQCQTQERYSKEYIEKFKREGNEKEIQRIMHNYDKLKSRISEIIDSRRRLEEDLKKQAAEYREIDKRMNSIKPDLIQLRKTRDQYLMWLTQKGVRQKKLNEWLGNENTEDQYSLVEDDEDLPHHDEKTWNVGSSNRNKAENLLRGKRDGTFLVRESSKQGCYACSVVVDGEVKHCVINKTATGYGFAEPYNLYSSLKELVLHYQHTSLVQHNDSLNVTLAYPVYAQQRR
From the text: Example C. PI3Kδ Scintillation Proximity Assay
as §1, with “PI3Kδ (p110δ/p85α)” for “PI3Kγ (p110γ)”, “Eurofins (St Charles, Mo.).” for “Life technology (Grand Island, N.Y.).”
as §2, with “PI3Kδ” for “PI3Kγ”, “3.4” for “13”, “PI3Kδ.” for “PI3Kγ.”

Chain of PI3Kγ (p110γ) Recombinant Human Protein (P48736 whole entry): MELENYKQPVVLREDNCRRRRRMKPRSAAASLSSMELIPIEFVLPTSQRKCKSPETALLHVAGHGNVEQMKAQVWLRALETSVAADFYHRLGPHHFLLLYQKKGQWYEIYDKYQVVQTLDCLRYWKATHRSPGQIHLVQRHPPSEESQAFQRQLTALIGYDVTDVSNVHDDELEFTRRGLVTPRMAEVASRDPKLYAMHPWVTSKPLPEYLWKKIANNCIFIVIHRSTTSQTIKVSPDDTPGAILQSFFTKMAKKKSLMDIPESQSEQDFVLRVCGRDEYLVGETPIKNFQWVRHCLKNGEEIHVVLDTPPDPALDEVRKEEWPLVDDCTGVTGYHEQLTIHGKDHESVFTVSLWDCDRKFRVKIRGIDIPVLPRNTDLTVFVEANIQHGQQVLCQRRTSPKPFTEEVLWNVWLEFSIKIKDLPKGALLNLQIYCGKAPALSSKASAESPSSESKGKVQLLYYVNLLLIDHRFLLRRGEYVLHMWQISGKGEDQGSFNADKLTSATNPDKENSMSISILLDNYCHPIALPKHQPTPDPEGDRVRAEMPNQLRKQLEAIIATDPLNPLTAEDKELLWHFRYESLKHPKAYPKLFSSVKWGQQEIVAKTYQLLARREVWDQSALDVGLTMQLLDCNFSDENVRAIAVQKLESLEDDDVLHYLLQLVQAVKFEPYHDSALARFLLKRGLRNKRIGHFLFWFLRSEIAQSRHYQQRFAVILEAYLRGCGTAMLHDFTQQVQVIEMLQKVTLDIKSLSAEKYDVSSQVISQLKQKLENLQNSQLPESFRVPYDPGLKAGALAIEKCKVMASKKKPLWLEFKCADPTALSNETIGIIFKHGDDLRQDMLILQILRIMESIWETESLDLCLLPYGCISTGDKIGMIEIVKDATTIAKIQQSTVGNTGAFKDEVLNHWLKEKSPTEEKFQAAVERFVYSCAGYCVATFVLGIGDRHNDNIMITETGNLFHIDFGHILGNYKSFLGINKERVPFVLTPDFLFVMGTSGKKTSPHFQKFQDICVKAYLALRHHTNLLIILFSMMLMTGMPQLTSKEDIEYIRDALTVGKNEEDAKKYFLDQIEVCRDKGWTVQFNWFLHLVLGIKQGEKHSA

IC50 [1]	IC50 [2]	Compound
≤ 0.5 µM	≤ 0.5 µM	c1ccc(-c2cnc(-c3cc(-c4cnn(C5CCOC5)c4)ccn3)[nH]2)cc1 (racemic) [Example 60, 2-(5-Phenyl-1H-imidazol-2-yl)-4-(1-(tetrahydrofuran-3-yl)-1H-pyrazol-4-yl)pyridine trifluoroacetate salt]
≤ 0.5 µM	≤ 0.5 µM	Cc1[nH]c(-c2cc(-c3cncc(N4CCOCC4)c3)ccn2)nc1C(C)O (racemic) [Example 124, 1-[5-Methyl-2-(5-morpholin-4-yl-3,4′-bipyridin-2′-yl)-1H-imidazol-4-yl]ethanol]
≤ 0.1 µM	≤ 0.5 µM	Cc1nc(-c2cc(-c3cncc(C(=O)NCC4CCCO4)c3)ccn2)[nH]c1C (racemic) [Example 167, 2′-(4,5-Dimethyl-1H-imidazol-2-yl)-N-((tetrahydrofuran-2-yl)methyl)-3,4′-bipyridine-5-carboxamide trifluoroacetate salt]
≤ 0.1 µM	≤ 0.05 µM	Cc1nc(-c2cc(-c3cncc(C(=O)N4CCC(c5ccccn5)C4)c3)ccn2)[nH]c1C (racemic) [Example 170, (2′-(4,5-Dimethyl-1H-imidazol-2-yl)-3,4′-bipyridin-5-yl)(3-(pyridin-2-yl)pyrrolidin-1-yl)methanone trifluoroacetate salt]
≤ 0.1 µM	≤ 0.05 µM	Cc1nc(-c2cc(-c3cncc(C(=O)N4CCC(c5ccccc5)C4)c3)ccn2)[nH]c1C (racemic) [Example 181, 2′-(4,5-Dimethyl-1H-imidazol-2-yl)-5-[(3-phenylpyrrolidin-1-yl)carbonyl]-3,4′-bipyridine trifluoroacetate salt]
≤ 0.5 µM	≤ 0.5 µM	Cc1nc(-c2cc(-c3cncc(C(=O)N4CCC(c5ccncc5)C4)c3)ccn2)[nH]c1C (racemic) [Example 182, 2′-(4,5-Dimethyl-1H-imidazol-2-yl)-5-[(3-pyridin-4-ylpyrrolidin-1-yl)carbonyl]-3,4′-bipyridine]
≤ 0.5 µM	≤ 0.5 µM	Cc1nc(-c2cc(-c3cncc(C(=O)N4CCCC(c5ccccc5)C4)c3)ccn2)[nH]c1C (racemic) [Example 188, 2′-(4,5-Dimethyl-1H-imidazol-2-yl)-5-[(3-phenylpiperidin-1-yl)carbonyl]-3,4′-bipyridine trifluoroacetate salt]
≤ 0.5 µM	> 0.5 µM	Cc1nc(-c2cc(C3CCCN(S(=O)(=O)c4ccccc4)C3)ccn2)[nH]c1C (racemic) [Example 215, 2-(4,5-Dimethyl-1H-imidazol-2-yl)-4-[1-(phenylsulfonyl)piperidin-3-yl]pyridine Trifluoroacetate Salt]
≤ 0.5 µM	≤ 0.5 µM	Cc1[nH]c(-c2cc(-c3cncc(N4CCOCC4)c3)ccn2)nc1C(=O)N(C)C1CCOC1 (racemic) [Example 261, N,5-Dimethyl-2-(5-morpholin-4-yl-3,4′-bipyridin-2′-yl)-N-(tetrahydrofuran-3-yl)-1H-imidazole-4-carboxamide]
> 0.5 µM	> 0.5 µM	Clc1ccc(Cn2cc(-c3ccnc(-c4nc(C5CCNC5)c[nH]4)c3)cn2)cc1 (racemic) [Example 306, 4-[1-(4-Chlorobenzyl)-1H-pyrazol-4-yl]-2-(4-pyrrolidin-3-yl-1H-imidazol-2-yl)pyridine Trifluoroacetate Salt]
≤ 0.5 µM	≤ 0.5 µM	Cn1cc(-c2ccnc(-c3ncc(-c4ccccc4)[nH]3)c2)cn1 [Example 8, 4-(1-Methyl-1H-pyrazol-4-yl)-2-(5-phenyl-1H-imidazol-2-yl)pyridine trifluoroacetate salt]
> 0.5 µM	> 0.5 µM	Cc1n[nH]c(C)c1-c1ccnc(-c2ncc(-c3ccccc3)[nH]2)c1 [Example 11, 4-(3,5-Dimethyl-1H-pyrazol-4-yl)-2-(5-phenyl-1H-imidazol-2-yl)pyridine trifluoroacetate salt]
≤ 0.5 µM	≤ 0.5 µM	CCCn1cc(-c2ccnc(-c3ncc(-c4ccccc4)[nH]3)c2)cn1 [Example 12, 2-(5-Phenyl-1H-imidazol-2-yl)-4-(1-propyl-1H-pyrazol-4-yl)pyridine trifluoroacetate salt]
> 0.5 µM	> 0.5 µM	Cn1nc(C(F)(F)F)cc1-c1ccnc(-c2ncc(-c3ccccc3)[nH]2)c1 [Example 14, 4-(1-Methyl-3-(trifluoromethyl)-1H-pyrazol-5-yl)-2-(5-phenyl-1H-imidazol-2-yl)pyridine trifluoroacetate salt]
> 0.5 µM	> 0.5 µM	Cn1ccnc1-c1ccnc(-c2ncc(-c3ccccc3)[nH]2)c1 [Example 16, 4-(1-Methyl-1H-imidazol-2-yl)-2-(5-phenyl-1H-imidazol-2-yl)pyridine trifluoroacetate salt]
≤ 0.5 µM	> 0.5 µM	N#Cc1cccc(Cn2cc(-c3ccnc(-c4ncc(-c5ccccc5)[nH]4)c3)cn2)c1 [Example 20, 3-((4-(2-(5-Phenyl-1H-imidazol-2-yl)pyridin-4-yl)-1H-pyrazol-1-yl)methyl)benzonitrile trifluoroacetate salt]
≤ 0.5 µM	> 0.5 µM	Clc1cccc(Cn2cc(-c3ccnc(-c4ncc(-c5ccccc5)[nH]4)c3)cn2)c1 [Example 21, 4-(1-(3-Chlorobenzyl)-1H-pyrazol-4-yl)-2-(5-phenyl-1H-imidazol-2-yl)pyridine trifluoroacetate salt]
> 0.5 µM	> 0.5 µM	c1ccc(-c2cnc(-c3cc(-c4cnn(C5CCNCC5)c4)ccn3)[nH]2)cc1 [Example 25, 2-(5-Phenyl-1H-imidazol-2-yl)-4-(1-(piperidin-4-yl)-1H-pyrazol-4-yl)pyridine trifluoroacetate salt]
> 0.5 µM	> 0.5 µM	c1ccc(-c2cnc(-c3cc(-c4cnn(CCN5CCOCC5)c4)ccn3)[nH]2)cc1 [Example 26, 4-(2-(4-(2-(5-Phenyl-1H-imidazol-2-yl)pyridin-4-yl)-1H-pyrazol-1-yl)ethyl)morpholine trifluoroacetate salt]
> 0.5 µM	> 0.5 µM	COC(=O)c1ccccc1Cn1cc(-c2ccnc(-c3ncc(-c4ccccc4)[nH]3)c2)cn1 [Example 30, Methyl 2-((4-(2-(5-phenyl-1H-imidazol-2-yl)pyridin-4-yl)-1H-pyrazol-1-yl)methyl)benzoate trifluoroacetate salt]
≤ 0.5 µM	> 0.5 µM	COC(=O)c1cccc(Cn2cc(-c3ccnc(-c4ncc(-c5ccccc5)[nH]4)c3)cn2)c1 [Example 31, Methyl 3-((4-(2-(5-phenyl-1H-imidazol-2-yl)pyridin-4-yl)-1H-pyrazol-1-yl)methyl)benzoate trifluoroacetate salt]

Compound	IC50 [1]	IC50 [2]
4-(1-Methyl-3-(trifluoromethyl)-1H-pyrazol-5-yl)-2-(5-phenyl-1H-imidazol-2-yl)pyridine trifluoroacetate salt [Example 13]	> 0.5 µM	> 0.5 µM
CS(=O)(=O)N1CCC(c2c[nH]c(-c3cc(-c4cnn(Cc5ccc(Cl)cc5)c4)ccn3)n2)C1 (single isomer, unassigned) [Example 304, 4-[1-(4-Chlorobenzyl)-1H-pyrazol-4-yl]-2-{4-[1-(methylsulfonyl)pyrrolidin-3-yl]-1H-imidazol-2-yl}pyridine trifluoroacetate salt]	≤ 0.1 µM	≤ 0.5 µM
